Experimental data taken from ChEMBL document CHEMBL1201862, “PubChem BioAssay data set” (2004).
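The compound was tested at five concentrations on cells cultured in 96-well plates, with a 48-hour exposure period. GI50 = concentration required for 50% inhibition of growth.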 Calls of active or inactive are those of the source. Cut-off read from the data, not from the text of the source: active = GI50 up to about 1.1 µM and inactive = higher.

Legend:
Assay in all cases: DTP human tumour cell line panel, 48 h
HOP-62 = tested on: HOP-62
K562 = tested on: K562
SF-268 = tested on: SF-268
SN12C = tested on: SN12C
OVCAR-3 = tested on: OVCAR-3
IGROV-1 = tested on: IGROV-1
SR = tested on: SR
UO-31 = tested on: UO-31
CAKI-1 = tested on: CAKI-1
HOP-92 = tested on: HOP-92
RXF 393 = tested on: RXF 393
SK-MEL-2 = tested on: SK-MEL-2
HCT-15 = tested on: HCT-15
HL-60 = tested on: HL-60
OVCAR-8 = tested on: OVCAR-8
NCI-H460 = tested on: NCI-H460
HCC 2998 = tested on: HCC 2998
A498 = tested on: A498
OVCAR-5 = tested on: OVCAR-5

Structure (SMILES) | GI50 (HOP-62) | GI50 (K562) | GI50 (SF-268) | GI50 (SN12C) | GI50 (OVCAR-3) | GI50 (IGROV-1) | GI50 (SR) | GI50 (UO-31) | GI50 (CAKI-1) | GI50 (HOP-92) | GI50 (RXF 393) | GI50 (SK-MEL-2) | GI50 (HCT-15) [µM] | GI50 (HL-60) | GI50 (OVCAR-8) | GI50 (NCI-H460) | GI50 (HCC 2998) | GI50 (A498) | GI50 (OVCAR-5)
Brc1ccc(/N=c2/nc3ccccn3n3nc(-c4ccccc4)cc23)cc1 | 15 µM (inactive) | > 100 µM (inactive) | 41.6 µM (inactive) | 81.8 µM (inactive) | 22.1 µM (inactive) | > 100 µM (inactive) | > 100 µM (inactive) | > 100 µM (inactive) | 15.9 µM (inactive) | 17.8 µM (inactive) | 14.9 µM (inactive) | 9.57 µM (inactive) | 30.5 | > 100 µM (inactive) | 28.3 µM (inactive) | 45.1 µM (inactive) | – | – | –
[N-]=[N+]=NC1CC(n2cc(COCC(F)(F)F)c(=O)[nH]c2=O)OC1CO (configuration not stated) | > 100 µM (inactive) | > 100 µM (inactive) | > 100 µM (inactive) | > 100 µM (inactive) | > 100 µM (inactive) | > 100 µM (inactive) | – | > 100 µM (inactive) | > 100 µM (inactive) | > 100 µM (inactive) | > 100 µM (inactive) | > 100 µM (inactive) | – | > 100 µM (inactive) | > 100 µM (inactive) | > 100 µM (inactive) | > 100 µM (inactive) | > 100 µM (inactive) | > 100 µM (inactive)
O=c1[nH]nc2ccccc2c1Cl | 21 µM (inactive) | 4.24 µM (inactive) | 17.8 µM (inactive) | 17.6 µM (inactive) | 2.65 µM (inactive) | 12.6 µM (inactive) | – | 15 µM (inactive) | 3.18 µM (inactive) | 3.08 µM (inactive) | – | 17.3 µM (inactive) | 6.41 | – | 21.2 µM (inactive) | 18.5 µM (inactive) | 1.52 µM (inactive) | 17.5 µM (inactive) | 18.3 µM (inactive)
NC(=O)c1ccccc1NC(=O)C(=O)C(C(=O)c1ccc2ccccc2c1)C1OC(=O)c2ccccc21 (configuration not stated) | 10.2 µM (inactive) | 16.5 µM (inactive) | 4.48 µM (inactive) | 15.9 µM (inactive) | 11.7 µM (inactive) | 14.8 µM (inactive) | – | 13.2 µM (inactive) | 7.67 µM (inactive) | 6.79 µM (inactive) | 2.09 µM (inactive) | 14.8 µM (inactive) | 16.7 | – | 7.66 µM (inactive) | > 100 µM (inactive) | 7.1 µM (inactive) | > 100 µM (inactive) | 24 µM (inactive)
O=c1[nH]c(-c2ccccc2)nc2cc([N+](=O)[O-])c(/C(Cl)=C/c3ccccc3)cc12 | – | 7.5 µM (inactive) | 29.2 µM (inactive) | 36.6 µM (inactive) | 30 µM (inactive) | 55 µM (inactive) | 31.1 µM (inactive) | 99.5 µM (inactive) | 15.1 µM (inactive) | 11.8 µM (inactive) | 14.4 µM (inactive) | 21.9 µM (inactive) | 7.82 | – | 19.7 µM (inactive) | – | > 100 µM (inactive) | – | > 100 µM (inactive)
COC1=CC(=C(C#N)/C(=N\c2ccccc2)SC)C=C(OC)C1=O | – | 22.6 µM (inactive) | – | > 100 µM (inactive) | 31.2 µM (inactive) | 86.1 µM (inactive) | – | 36.5 µM (inactive) | > 100 µM (inactive) | 3.84 µM (inactive) | 24.4 µM (inactive) | – | 80.7 | – | 31.1 µM (inactive) | 70.6 µM (inactive) | 94.8 µM (inactive) | 20.9 µM (inactive) | –
CCCO/S(=N\S(=O)(=O)c1ccccc1)c1ccccc1[N+](=O)[O-] (configuration not stated) | > 100 µM (inactive) | > 100 µM (inactive) | > 100 µM (inactive) | > 100 µM (inactive) | > 100 µM (inactive) | > 100 µM (inactive) | > 100 µM (inactive) | > 100 µM (inactive) | > 100 µM (inactive) | – | – | > 100 µM (inactive) | > 100 | – | > 100 µM (inactive) | > 100 µM (inactive) | > 100 µM (inactive) | – | > 100 µM (inactive)
[N-]=[N+]=NC(c1cn(C2CC(O)C(CO)O2)c(=O)[nH]c1=O)C(Cl)Br (configuration not stated) | – | > 100 µM (inactive) | – | > 100 µM (inactive) | – | – | > 100 µM (inactive) | > 100 µM (inactive) | > 100 µM (inactive) | > 100 µM (inactive) | > 100 µM (inactive) | > 100 µM (inactive) | > 100 | > 100 µM (inactive) | > 100 µM (inactive) | > 100 µM (inactive) | > 100 µM (inactive) | – | –
Clc1ccccc1C1=NN(c2ccccc2)C2c3ccccc3OCC12 (configuration not stated) | > 100 µM (inactive) | 44.3 µM (inactive) | > 100 µM (inactive) | – | > 100 µM (inactive) | > 100 µM (inactive) | – | > 100 µM (inactive) | – | 39.6 µM (inactive) | > 100 µM (inactive) | > 100 µM (inactive) | – | 41.6 µM (inactive) | > 100 µM (inactive) | > 100 µM (inactive) | > 100 µM (inactive) | > 100 µM (inactive) | > 100 µM (inactive)
